In patent US20090005419A1, “Organic Compounds” (priority 2005, published 2009) one finds Kd data, which are given here for four compounds.

Molecules are shown by their SMILES.

As usually defined, the Kd is the constant that tells how readily two partners part at equilibrium.

In the assay the target is T1, HuRfl (Homo sapiens, UniProt Q15717).
T1 construct: HuRfl full length HuR protein
T1 sequence (Q15717 whole entry): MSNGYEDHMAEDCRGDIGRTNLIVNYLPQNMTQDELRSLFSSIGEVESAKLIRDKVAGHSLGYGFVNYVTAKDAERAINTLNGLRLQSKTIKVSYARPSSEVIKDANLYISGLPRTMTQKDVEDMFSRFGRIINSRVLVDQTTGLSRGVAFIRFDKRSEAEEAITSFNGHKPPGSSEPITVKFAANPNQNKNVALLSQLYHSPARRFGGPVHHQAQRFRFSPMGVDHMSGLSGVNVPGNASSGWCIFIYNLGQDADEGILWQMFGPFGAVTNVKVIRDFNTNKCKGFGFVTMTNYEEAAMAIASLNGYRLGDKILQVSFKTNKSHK
Nature of the assay: Competition experiments with ARE RNA binding to HuRfl (anisotropy, 2D-FIDA). As to conditions: dissociation constants from competition experiments with ARE RNA binding to HuRfl; 1:1:1 stoichiometric, competitive inhibition assumed. The protocol: (1) A cellular reporter gene assay with firefly luciferase under control of the IL-2 or TNF-α AU-rich element. This assay is designed to identify cellularly active, non-toxic inhibitors of ARE-mediated mRNA stabilization. The confirmed hits are tested in a control assay with the luciferase CDS under the IL-2 or TNF-α promoter to exclude compounds acting at the transcriptional level. By definition, the identified hit compounds interfere with posttranscriptional stabilization of short-lived ARE mRNAs at some level along the ARE pathway. (2) In vitro screen for HuR-ARE inhibitors using confocal fluctuation spectroscopy. This assay uses 2D-FIDA to monitor binding of HuR12, a shortened variant of HuR to a TMR labeled ARE RNA in solution. Compounds identified in this screen are supposed to interfere with HuR-ARE recognition by binding either to the ARE or to HuR12. (3) CONA with HuR. Combinatorial on-bead libraries are screened for high affinity HuR binders with CONA. After picking of hit beads and cleavage of on-bead binders from the solid support, the compound structures are decoded by PHPLC-MS. Binding of resynthesized hit compounds to HuR is tested in solution. As the primary result, the identified compounds represent high affinity HuR binders. Functionally, these may be inhibitors of any HuR activity including ARE recognition, nucleocytoplasmic shuttling and protection of the mRNA from ARE-dependent degradation.
The RNA fraction bound y is calculated from the anisotropy data based on y=(r−rmin)/((r−rmin)+Q(rmax−r)) with r≡ measured anisotropy, rmin, rmax≡ anisotropy of the free and HuR bound RNA, respectively, Q ≡ quenching. Dissociation constants Kd are determined by nonlinear curve fitting with KMath in Mathematica 5.0.0, assuming a 1:1:1 stoichiometric, competitive inhibition.
`COc1cccc(CNC(=O)c2ccc(C(=O)NC(Cc3ccc(CN)cc3)C(=O)NCc3ccc(C)cc3)cc2)c1` (stereo not shown) [Example 3, N-[2-(4-Aminomethyl-phenyl)-1-(4-methyl-benzylcarbamoyl)-ethyl]-N′-(3-methoxy-benzyl)-terephthalamide] yielded a Kd of 92 ± 22 nM.
The figure for `COCCn1c(C(=O)CN2CCC(C(N)=O)CC2)cc(C(=O)NC(CCO)C(=O)NCCCN2CCCC2=O)c1C` (stereo not shown) [Example 4, 1-{2-[4-{3-Hydroxy-1-[3-(2-oxo-pyrrolidin-1-yl)-propylcarbamoyl]-propylcarbamoyl}-1-(2-methoxy-ethyl)-5-methyl-1H-pyrrol-2-yl]-2-oxo-ethyl}-piperidine-4-carboxylic acid amide] is 103 ± 20 nM; for `COc1cccc(CCn2c(C(=O)CN3CCCCC3)cc(C(=O)NC(CC(=O)O)C(=O)NCCCN3CCCC3=O)c2C)c1` (stereo not shown) [Example 5, 3-{[1-[2-(3-Methoxy-phenyl)-ethyl]-2-methyl-5-(2-piperidin-1-yl-acetyl)-1H-pyrrole-3-carbonyl]-amino}-N-[3-(2-oxo-pyrrolidin-1-yl)-propyl]-succinamic acid] it is 104 ± 14 nM; for `Cc1c(C(=O)NC(Cc2c[nH]c3ccccc23)C(=O)NCCCN2CCCC2=O)cc(C(=O)CN2CCCCC2)n1Cc1ccccc1` (stereo not shown) [Example 6, 1-Benzyl-2-methyl-5-(2-piperidin-1-yl-acetyl)-1H-pyrrole-3-carboxylic acid {2-(1H-indol-3-yl)-1-[3-(2-oxo-pyrrolidin-1-yl)-propylcarbamoyl]-ethyl}-amide] it is 143 ± 27 nM.
